From patent US11209437B2, “Fluorescent probe and preparation method and use thereof” (Fluorescence Diagnosis (shanghai) Biotech Company Ltd., priority 2016, dated 2021)

Experiments:
[1] = Viscosity responsiveness: fluorescence emission spectra of probes in glycerol and methanol; type: physicochemical; conditions: for Emission wavelength: excited at maximum excitation wavelength of each probe; for Fluorescence ratio in glycerol to methanol: probe 1×10^−5 M
Description: Probes 1 to 98, 101, 103, 105, 107, 109, 111, 114, 117, and 120, and the reference probes 99, 100, 102, 104, 106, 108, 110, 112, 113, 115, 116, 118, 119, 121, BG-CCVJ and BG-Gly-CCVJ were dissolved in dimethyl sulfoxide, respectively, to prepare mother liquors having a concentration of 1×10^−2 M, to each of which glycerol and methanol were added and uniformly mixed, to prepare solutions finally having a concentration of 1×10^−5 M. Depending on the probes, fluorescence emission spectra of the probes were detected successively with the maximum excitation wavelength of each probe under the same conditions, and the results were shown in Table 1.
That is, these probes are sensitive to viscosity changes and have viscosity responsiveness.

[2] = Fluorescence of free probe prior to binding to a protein tag; type: physicochemical
Description: (§1) Probes were mixed with corresponding protein tags to obtain mixed samples, in which the final probe concentration was 5 μM, and the final protein tag concentration was 10 μM. The mixed samples were incubated 37° C. for 1 hr, fluorescence spectrophotometer was used to detect the change in fluorescence intensity, and the results are shown in Table 1.
(§2) From the quantum yield of probe bound to protein tag, after reacting with the protein tags, the probes of the Examples could be detected to have significant signal enhancement in corresponding excitation transmission channels, the fluorescence activation multiple reached several hundreds to a thousand or more, and the brightness was high, which illustrates that after the probes of the Examples are bound to the protein tags, fluorescence of the probes can be activated, and the probes have good fluorescent molecular switching properties. In contrast, though the fluorescence of the reference probes could also be activated, the quantum yield of activated fluorescence was very low, and the brightness was very poor. In particular, in view of comparison results between probe 98 and reference probe 99, probe 101 and reference probe 102, probe 103 and reference probe 104, probe 105 and reference probe 106, probe 107 and reference probe 108, probe 109 and reference probe 110, probe 111 and reference probe 112, probe 114 and reference probe 115, probe 117 and reference probe 118, probe 120 and reference probe 121 in Table 1, for the same fluorescent dye, when the ligand is connected to the electron donor part of the fluorescent dye, the fluorescence activation brightness of the probe is much higher than the reference probe in which ligand is connected to the electron acceptor part of the fluorescent dye.

SNAP protein tags = target: T1, SNAP protein tags (Homo sapiens, UniProt P16455, A127T/A154D/C150Q/C62A/E30R/G131K/G132T/G153L/K125A/K32I/L33F/M134L/N157G/Q115S/Q116H/R128A/R135S/S151G/S152D/S159E); assay: Fluorescence activation of probe after incubation with corresponding protein tag (SNAP); type: biochemical; conditions: probe 5 μM, protein tag 10 μM, 37° C., 1 hr
T1 sequence (P16455 1-182 E30R/K32I/L33F/C62A/Q115S/Q116H/K125A/A127T/R128A/G131K/G132T/M134L/R135S/C150Q/S151G/S152D/G153L/A154D/N157G/S159E): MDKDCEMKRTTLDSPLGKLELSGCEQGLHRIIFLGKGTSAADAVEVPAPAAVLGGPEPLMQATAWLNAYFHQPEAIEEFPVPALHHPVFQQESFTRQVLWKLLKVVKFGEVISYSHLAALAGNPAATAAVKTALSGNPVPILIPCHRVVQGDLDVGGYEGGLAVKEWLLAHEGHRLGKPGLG
Description: as §1, §2

SMILES | Emission wavelength [1] | Fluorescence ratio in glycerol to methanol [1] | Quantum yield of free probe [2] | Fluorescence activation multiple (SNAP protein tags) | Quantum yield of probe bound to protein tag (SNAP protein tags)
CN(CCOC(=O)NCc1ccc(COc2nc(N)nc3[nH]cnc23)cc1)c1ccc2nc(/C=C(\C#N)c3nc4ccccc4o3)oc2c1 [probe 46] | 620 nm | 682 | <0.001 | 563 | 0.21
CN(CCOC(=O)NCc1ccc(COc2nc(N)nc3[nH]cnc23)cc1)c1ccc2nc(/C=C(\C#N)c3nc4ccccc4s3)oc2c1 [probe 47] | 627 nm | 235 | <0.001 | 358 | 0.26
CN(CCOC(=O)NCc1ccc(COc2nc(N)nc3[nH]cnc23)cc1)c1ccc2nc(/C=C(\C#N)C(=O)O)oc2c1 [probe 49] | 601 nm | 210 | <0.001 | 541 | 0.11
CN1C(=O)/C(=C\c2nc3ccc(N(C)CCOC(=O)NCc4ccc(COc5nc(N)nc6[nH]cnc56)cc4)cc3o2)N=C1c1ccccc1 [probe 50] | 612 nm | 358 | <0.001 | 416 | 0.29
CN(CCOC(=O)NCc1ccc(COc2nc(N)nc3[nH]cnc23)cc1)c1ccc2nc(/C=C(\C#N)C(=O)OC(C)(C)C)sc2c1 [probe 51] | 625 nm | 359 | <0.001 | 392 | 0.25
CN(CCOC(=O)NCc1ccc(COc2cc(Cl)nc(N)n2)cc1)c1ccc2nc(/C=C(\C#N)C(=O)OC(C)(C)C)sc2c1 [probe 52] | 625 nm | 270 | <0.001 | 435 | 0.25
CN(CCOC(=O)NCc1ccc(COc2nc(N)nc3[nH]cnc23)cc1)c1ccc2nc(/C=C(\C#N)c3nc4ccccc4o3)sc2c1 [probe 54] | 650 nm | 391 | <0.001 | 498 | 0.17
CN(CCOC(=O)NCc1ccc(COc2nc(N)nc3[nH]cnc23)cc1)c1ccc2nc(/C=C(\C#N)c3nc4ccccc4s3)sc2c1 [probe 55] | 651 nm | 211 | <0.001 | 382 | 0.25
CN(CCOC(=O)NCc1ccc(COc2nc(N)nc3[nH]cnc23)cc1)c1ccc(C#C/C=C(\C#N)c2nc3ccccc3o2)cc1 [probe 58] | 590 nm | 419 | <0.001 | 519 | 0.27
CN(CCOC(=O)NCc1ccc(COc2nc(N)nc3[nH]cnc23)cc1)c1cc2c(s1)-c1sc(C=C(C#N)C#N)cc1[Si]2(C)C [probe 73] | 680 nm | 325 | 0.0031 | 248 | 0.76
CN(CCOC(=O)NCc1ccc(COc2nc(N)nc3[nH]cnc23)cc1)c1cc2c(s1)-c1sc(/C=C(/C#N)C(=O)OC(C)(C)C)cc1[Si]2(C)C [probe 74] | 680 nm | 297 | 0.0025 | 311 | 0.78
CN(CCOC(=O)NCc1ccc(COc2nc(N)nc3[nH]cnc23)cc1)c1cc2c(s1)-c1sc(/C=C(/C#N)c3nc4ccccc4o3)cc1[Si]2(C)C [probe 75] | 700 nm | 105 | 0.0021 | 211 | 0.44

Further lines, results first:

Emission wavelength [1] | Fluorescence ratio in glycerol to methanol [1] | Quantum yield of free probe [2] | Fluorescence activation multiple (SNAP protein tags) | Quantum yield of probe bound to protein tag (SNAP protein tags) | SMILES
600 nm | 370 | <0.001 | 498 | 0.39 | CN(CCOC(=O)NCc1ccc(COc2nc(N)nc3[nH]cnc23)cc1)c1ccc(C#C/C=C(\C#N)c2nc3ccccc3s2)cc1 [probe 59]
620 nm | 817 | 0.0012 | 668 | 0.77 | CN(CCOC(=O)NCc1ccc(COc2nc(N)nc3[nH]cnc23)cc1)c1cc2sc3cc(/C=C(\C#N)c4nc5ccccc5o4)sc3c2s1 [probe 61]
640 nm | 711 | <0.001 | 592 | 0.32 | CN(CCOC(=O)NCc1ccc(COc2nc(N)nc3[nH]cnc23)cc1)c1cc2sc3cc(/C=C(\C#N)c4nc5ccccc5s4)sc3c2s1 [probe 62]
620 nm | 632 | <0.001 | 519 | 0.48 | CN(CCOC(=O)NCc1ccc(COc2nc(N)nc3[nH]cnc23)cc1)c1ccc2c(c1)sc1cc(C=C(C#N)C#N)sc12 [probe 64]
650 nm | 391 | <0.001 | 798 | 0.66 | CN(CCOC(=O)NCc1ccc(COc2nccc(N)n2)cc1)c1ccc2c(c1)sc1cc(/C=C(/C#N)c3nc4ccccc4o3)sc12 [probe 65]
620 nm | 276 | <0.001 | 576 | 0.36 | COCCNC(=O)/C(C#N)=C/c1ccc(-c2ccc(N(C)CCOC(=O)NCc3ccc(COc4nc(N)nc5[nH]cnc45)cc3)cc2)s1 [probe 67]
620 nm | 381 | <0.001 | 681 | 0.36 | COCCNC(=O)/C(C#N)=C/c1ccc(-c2ccc(N(C)CCOC(=O)NCc3ccc(COc4cc(Cl)nc(N)n4)cc3)cc2)s1 [probe 68]
640 nm | 131 | 0.0026 | 258 | 0.68 | CN(CCOC(=O)NCc1ccc(COc2nc(N)nc3[nH]cnc23)cc1)c1cc2cc3sc(/C=C(\C#N)C(=O)OC(C)(C)C)cc3cc2s1 [probe 70]
640 nm | 121 | 0.0028 | 239 | 0.67 | COCCNC(=O)/C(C#N)=C/c1cc2cc3sc(N(C)CCOC(=O)NCc4ccc(COc5nc(N)nc6[nH]cnc56)cc4)cc3cc2s1 [probe 71]
672 nm | 189 | <0.001 | 369 | 0.28 | COCCNC(=O)/C(C#N)=C/c1ccc(-c2ccc(N(C)CCOC(=O)NCc3ccc(COc4nc(N)nc5[nH]cnc45)cc3)s2)s1 [probe 78]
681 nm | 298 | <0.001 | 419 | 0.31 | CN(CCOC(=O)NCc1ccc(COc2nc(N)nc3[nH]cnc23)cc1)c1ccc(-c2ccc(/C=C(\C#N)c3nc4ccccc4s3)s2)s1 [probe 79]
